Reference: US20240101599A1, “PEPTIDE, CELL GROWTH PROMOTER, PROTEIN PRODUCTION PROMOTER, CULTURE MEDIUM, CELL GROWTH METHOD USING PEPTIDE, AND PROTEIN PRODUCTION METHOD USING PEPTIDE” (Maruhachi Muramatsu, Inc., priority 2020, published 2024)
Like-named read-outs stand apart in the source and are kept apart here. Peptide text beside a SMILES is read from it.

Experiments:
CHO-K1 [1] = assay: Relationship between number of days of cell growth of each peptide and cell number (absorbance); type: cell-based; conditions: 1.1 mM GPP, 2.2 mM DGP, 2.1 mM GEK, 2.0 mM AGK, MEMα without FBS
Protocol: Peptides having the sequences of Gly-Pro-Pro (GPP), Asp-Gly-Pro (DGP), Gly-Glu-Lys (GEK), and Ala-Gly-Lys (AGK) were synthesized to prepare each peptide solution such that the concentration was a concentration at which the cell number increased the most within a range of 0 mM to 5 mM. In other words, Gly-Pro-Pro (GPP) was adjusted to 11 mM, Asp-Gly-Pro (DGP) was adjusted to 22 mM, Gly-Glu-Lys (GEK) was adjusted to 21 mM, and Ala-Gly-Lys (AGK) was adjusted to 20 mM, and an amount of 1/10 of the total culture medium volume was added to each well immediately before the cell culture test such that final concentrations were 1.1 mM, 2.2 mM, 2.1 mM, and 2.0 mM, respectively.
A cell suspension prepared such that CHO-K1 (RIKEN BioResource Research Center, cell number: RCB2330) was at 3×10^4 cells/mL was seeded in a 96-well plate at 100 μL/well and cultured in an incubator at 37° C. and 5% CO2 for 24 hours. As a culture medium, an MEMα culture medium (Gibco) containing 10% FBS was used.
After removing the culture medium from each well and washing with the MEMα culture medium (100 μL), 90 μL of a new MEMα culture medium was dispensed into each well, and each peptide solution (10 μL) was added (total 100 μL/well) to perform culture for 0 to 5 days. Every day, 10 μL/well of a viable cell count measurement reagent SF (Nacalai Tesque Inc.) was added, and a color reaction was carried out in an incubator at 37° C. and 5% CO2 for 2 hours to measure an absorbance at 450 nm with a plate reader. A reference wavelength was 630 nm. It was confirmed that the absorbance at 450 nm correlated with the cell number. A similar culture test was performed using a system containing neither peptide nor FBS as a comparative sample.
The above preparation, culture, and measurement were performed with n=3, and Table 12 and FIG. 12 show the absorbance and the standard deviation of each peptide solution for each day.

CHO-K1 [2] = assay: Cell growth test of each peptide on coating agent for 5 days; type: cell-based; parameters: Viability, 1 / Viability, 2 / Viability, 3 / Viability, Mean: unit not given here; conditions: 2.0 mM Ala-Gly-Lys, 2.1 mM Gly-Glu-Lys, 2.5 mM Gly-Gly-Gly, poly-L-lysine coating; for Cells cell count, Mean / Viability, Mean: mean n=3, 2.2 mM Asp-Gly-Pro; for Cells cell count, 1 / Viability, 1: replicate 1, 2.2 mM Asp-Gly-Pro; for Cells cell count, 2 / Viability, 2: replicate 2, 2.2 mM Asp-Gly-Pro; for Cells cell count, 3 / Viability, 3: replicate 3, 2.2 mM Asp-Gly-Pro
Protocol: Peptides having the sequences of Asp-Gly-Pro (DGP), Ala-Gly-Lys (AGK), Gly-Glu-Lys (GEK), and Gly-Gly-Gly (GGG) were synthesized to prepare each peptide solution such that the concentration was a concentration at which the cell number increased the most within a range of 0 mM to 5 mM. In other words, Asp-Gly-Pro (DGP) was adjusted to 22 mM, Ala-Gly-Lys (AGK) was adjusted to 20 mM, Gly-Glu-Lys (GEK) was adjusted to 21 mM, and Gly-Gly-Gly (GGG) was adjusted to 25 mM, and an amount of 1/10 of the total culture medium volume was added to each well immediately before the cell culture test such that final concentrations were 2.2 mM, 2.0 mM, 2.1 mM, and 2.5 mM, respectively. Poly-L-lysine (Peptide Institute, Inc., Poly-L-Lysine Hydrochloride, code: 3075) was prepared to 0.1 mg/mL, and 200 μL was dispensed into each well of a 24-well plate, which was left to stand in an incubator at 37° C. for 2 hours. After removing the residual liquid with an aspirator, rinsing was performed with distilled water, irradiation was performed with a UV lamp in a clean bench without a lid, and drying was performed overnight to sterilize. A cell suspension prepared such that CHO-K1 (RIKEN BioResource Research Center, cell number: RCB2330) was at 4×10^4 cells/mL was seeded in each well of a 24-well plate at 500 μL/well and cultured in an incubator at 37° C. and 5% CO2 for 24 hours. As a culture medium, an MEMα culture medium (Gibco) containing 10% FBS was used.
After removing the culture medium from each well and washing with the MEMα culture medium (500 μL), 450 μL of a new MEMα culture medium was dispensed into each well, and each peptide solution (50 μL) was added (total 500 μL/well) to perform culture for 5 days. The cells were recovered to count the cell number. A similar culture test was performed using a system containing neither peptide nor FBS as a comparative sample.
The culture medium in each well was recovered in a 1.5 mL tube to be rinsed with 200 μL of MEMα, and the rinsed liquid was also recovered in the same 1.5 mL tube. Thereafter, 100 μL of trypsin was added and incubated for 3 minutes. After rinsing with 300 μL of MEMα containing 10% FBS, the rinsed liquid was also recovered in the same 1.5 mL tube. After rinsing again with 200 μL of MEMα containing 10% FBS, the rinsed liquid was also recovered in the same 1.5 mL tube.
A centrifugation operation was performed on the cells recovered in the 1.5 mL tube. The centrifugation conditions were 1,000 rpm, 10 minutes, and 4° C.
The supernatant was removed, and 300 μL of Cold PBS (phosphate buffered saline) was added to perform a centrifugation operation under the same conditions. The present operation was repeated twice.
Suspension was carried out with 100 μL of Binding Buffer, and 2 μL of propidium iodide (PI) was added and stirred in the tube to cause a reaction for 15 minutes at room temperature and with light shielding. Thereafter, the viable cell count and the cell viability were measured with a flow cytometer.
The above preparation, culture, and measurement were performed with n=3. Table 15 and FIG. 15 show the viable cell count in each peptide solution, and Table 16 and FIG. 16 show the cell viability in each peptide solution.

[3] = system: serum-free floating CHO DP-12; conditions: GEK 2.05 mM, DGP 1.11 mM + medium supplemented with vitamins and the like; for Amount of protein produced: ELISA
Protocol: 5 mL of each of a DMEM/F12 basal medium, a medium supplemented with vitamins and the like (DMEM/F12 basal medium+a component supplemented with vitamins and the like), and each peptide solution was added to each well of a 24-well (Deep well) cassette of Micro-24 Bioreactor System (manufactured by Nihon Pall Corporation) to perform culture overnight under the conditions of 37° C., pH 7, and a stirring speed of 650 rpm. On the next day, pH calibration was performed, and thereafter 2 mL of the cell suspension prepared at 3.5×10^5 cells/mL was added to each well of the 24-well (Deep well) cassette, seeded such that the cell density of the floating cells was 1×10^5 cells/mL (7 mL/well), and cultured in the following evaluation medium under culture conditions of 37° C., pH 7, a stirring speed of 650 rpm, and dissolved oxygen of 30%.
• DMEM/F12 basal medium • Medium supplemented with vitamins and the like (basal medium+component supplemented with vitamins and the like) • GEK (2.05 mM)+medium supplemented with vitamins and the like • DGP (1.11 mM)+medium supplemented with vitamins and the like
As a culture medium, a DMEM/F12 basal medium in which 200 nM of methotrexate, 10 μg/mL of insulin, 5.5 μg/mL of transferrin, 6.7 ng/mL of sodium selenite, 10 μL/mL of Anti-Clumping Agent, and 10 μL/mL of 10% Pluronic F68 were blended in a DMEM/F12 culture medium (Gibco) was used.
As the floating cells used, serum-free floating CHO DP-12 obtained by acclimating CHO DP-12 (ATCC, Cat. No. CRL-12445) to serum-free flotation and subculturing using a 100 mL volume Erlenmeyer flask and with a shaking culture device (Custom Bio Shaker CO2-BR-43FL, TAITEC CORPORATION) under the culture conditions of 37° C., 5% CO2, and a stirring speed of 125 rpm was used.
After the third day of culture, 200 pμL of the culture medium was recovered in a 1.5 mL tube from each well of the 24-well (Deep well) cassette. 50 μL out of this was put in another 1.5 mL tube, and after adding 50 μL of trypan blue to sufficiently suspend, the viable cell count and the viability were measured using a cell counter (Countess II, manufactured by Life Technologies Corporation).
After the third day of culture, 150 μL out of 200 μL of the culture medium recovered from each well of the 24-well (Deep well) cassette was subjected to a centrifugation operation (5,000 rpm, for 5 minutes) in a 1.5 mL tube, and the supernatant was separately recovered to measure the amount of produced protein by ELISA.

Row | Molecule | OD450 (average value n = 3) (CHO-K1 [1]; Day 0) | OD450 (average value n = 3) (CHO-K1 [1]; Day 1) | OD450 (average value n = 3) (CHO-K1 [1]; Day 2) | OD450 (average value n = 3) (CHO-K1 [1]; Day 3) | OD450 (average value n = 3) (CHO-K1 [1]; Day 4) | OD450 (average value n = 3) (CHO-K1 [1]; Day 5) | Cells cell count, Mean (CHO-K1 [2]) | Viability, Mean (CHO-K1 [2]) | Cells cell count, 1 (CHO-K1 [2]) | Viability, 1 (CHO-K1 [2]) | Cells cell count, 2 (CHO-K1 [2]) | Viability, 2 (CHO-K1 [2]) | Cells cell count, 3 (CHO-K1 [2]) | Viability, 3 (CHO-K1 [2]) | cell number ([3]; Day 0) | cell number ([3]; Day 3) | Amount of protein produced ([3]; Day 3) [mg/L] | cell number ([3]; Day 4) | Amount of protein produced ([3]; Day 4) [mg/L] | cell number ([3]; Day 5) | also measured
1 | NCCCC[C@H](NC(=O)[C@H](CCC(=O)O)NC(=O)CN)C(=O)O [GEK, Gly-Glu-Lys] (H-Gly-Glu-Lys-OH; N-terminus and C-terminus assumed) | 0.1613 | 0.4280 | 0.6043 | 0.7300 | 0.9023 | 0.9107 | 16.5830 ×10^4 | 90.3 | 15.7190 ×10^4 | 90.2 | 16.9875 ×10^4 | 90.3 | 17.0425 ×10^4 | 90.5 | 0.10 ×10^6cells/ml | 1.73 ×10^6cells/ml | 26.32 | 2.40 ×10^6cells/ml | 54.96 | 2.65 ×10^6cells/ml | Amount of protein produced ([3]; Day 5): 75.54 mg/L; cell number ([3]; Day 6): 2.64 ×10^6cells/ml; Amount of protein produced ([3]; Day 6): 98.46 mg/L; cell number ([3]; Day 7): 3.05 ×10^6cells/ml; Amount of protein produced ([3]; Day 7): 127.08 mg/L
2 | C[C@H](N)C(=O)NCC(=O)N[C@@H](CCCCN)C(=O)O [AGK, Ala-Gly-Lys] (H-Ala-Gly-Lys-OH; N-terminus and C-terminus assumed) | 0.1757 | 0.4577 | 0.7440 | 0.7997 | 1.0263 | 1.0620 | 2.6217 ×10^4 | 25.0 | 2.6860 ×10^4 | 26.4 | 3.0605 ×10^4 | 26.4 | 2.1185 ×10^4 | 22.1 | – | – | – | – | – | – | –
3 | Asp-Gly-Pro [DGP] | 0.1607 | 0.4507 | 0.6840 | 0.7700 | 0.9313 | 0.9363 | 14.9353 ×10^4 | 89.6 | 15.8220 ×10^4 | 91.5 | 14.8590 ×10^4 | 91.2 | 14.1250 ×10^4 | 86.0 | 0.10 ×10^6cells/ml | 1.15 ×10^6cells/ml | 19.86 | 2.52 ×10^6cells/ml | 43.99 | 2.58 ×10^6cells/ml | Viability ([3]; Day 0): 98.0%; Viability ([3]; Day 3): 97.50%; Viability ([3]; Day 4): 97.50%; Viability ([3]; Day 5): 94.50%; Amount of protein produced ([3]; Day 5): 63.65 mg/L; Viability ([3]; Day 6): 87.00%; cell number ([3]; Day 6): 3.50 ×10^6cells/ml; Amount of protein produced ([3]; Day 6): 82.54 mg/L; Viability ([3]; Day 7): 81.50%; cell number ([3]; Day 7): 3.01 ×10^6cells/ml; Amount of protein produced ([3]; Day 7): 104.75 mg/L
4 | Gly-Pro-Pro [GPP] | 0.2023 | 0.5267 | 0.7083 | 0.8350 | 1.0227 | 0.9003 | – | – | – | – | – | – | – | – | – | – | – | – | – | – | –
